In article PMC8815882, “Screening the pandemic response box identified benzimidazole carbamates, Olorofim and ravuconazole as promising drug candidates for the treatment of eumycetoma” (PLoS Neglected Tropical Diseases, 2022):
Like-named read-outs stand apart in the source and are kept apart here.

Tested on: M. mycetomatis genome strain MM55
Assay: CLSI M38-A2 based in vitro susceptibility screening (XTT or resazurin), growth at fixed concentration
Format: cell-based, Madurella mycetomatis
Conditions: Madurella mycetomatis
[1] = 25 uM, mean of three replicates, read-out: Percentage survival at 25um, 25 uM mean
[2] = 25 uM, replicate A, read-out: Percentage survival at 25um, 25 um A
[3] = 25 uM, replicate B, read-out: Percentage survival at 25um, 25 uM B
[4] = 25 uM, replicate C, read-out: Percentage survival at 25um, 25 uM C
[5] = mean of three replicates, read-out: Percentage survival at 100um, 100 uM mean
[6] = replicate 1, read-out: Percentage survival at 100um, 100 uM A (first replicate column)
[7] = replicate 2, read-out: Percentage survival at 100um, 100 uM A (second replicate column)
[8] = replicate 3, read-out: Percentage survival at 100um, 100 uM A (third replicate column)
[9] = 25 uM, mean of replicates, read-out: Percentage survival at 25um, 25 uM mean
[10] = mean of replicates, read-out: Percentage survival at 100um, 100 uM mean
[11] = replicate 1, read-out: Percentage survival at 100um, 100 uM A
[12] = replicate 2, read-out: Percentage survival at 100um, 100 uM A
[13] = replicate 3, read-out: Percentage survival at 100um, 100 uM A
[14] = 25 uM, mean of three, M. mycetomatis MM55, read-out: Percentage survival at 25um, 25 uM mean
[15] = 25 uM, replicate A, M. mycetomatis MM55, read-out: Percentage survival at 25um, 25 um A
[16] = 25 uM, replicate B, M. mycetomatis MM55, read-out: Percentage survival at 25um, 25 uM B
[17] = 25 uM, replicate C, M. mycetomatis MM55, read-out: Percentage survival at 25um, 25 uM C
[18] = mean of three, M. mycetomatis MM55, read-out: Percentage survival at 100um, 100 uM mean
[19] = replicate 1, M. mycetomatis MM55, read-out: Percentage survival at 100um, 100 uM A (first replicate column)
[20] = replicate 2, M. mycetomatis MM55, read-out: Percentage survival at 100um, 100 uM A (second replicate column)
[21] = replicate 3, M. mycetomatis MM55, read-out: Percentage survival at 100um, 100 uM A (third replicate column)
[22] = 25 uM, mean, read-out: Percentage survival at 25um, 25 uM mean
[23] = mean, read-out: Percentage survival at 100um, 100 uM mean
[24] = replicate (first column), read-out: Percentage survival at 100um, 100 uM A
[25] = replicate (second column), read-out: Percentage survival at 100um, 100 uM A
[26] = replicate (third column), read-out: Percentage survival at 100um, 100 uM A

SMILES | activity at 25 µM [2] | activity at 25 µM [3] | activity at 25 µM [4] | activity at 25 µM [9] | activity at 100 µM [10] | activity at 100 µM [11] | activity at 100 µM [12] | activity at 100 µM [13] | activity at 25 µM [15] | activity at 100 µM [18] | activity at 100 µM [19] | activity at 100 µM [21] | further results
O=C(Cn1cnc2ccccc2c1=O)Nc1ccccc1 [MMV1578891] | 84% | 82.2% | 74.7% |  |  |  |  |  |  |  |  |  | activity at 25 µM [1]: 80.3%; activity at 100 µM [5]: 83.9%; activity at 100 µM [6]: 90.8%; Percent fungal survival at 100 µM [7]: 79.4%; activity at 100 µM [8]: 81.6%
CCOC(=O)N1CCN(c2ccc(Cl)cc2)CC1 [MMV1578898] | 91.8% | 91.8% | 66.9% | 83.5% | 47.7% | 38.1% | 63.1% | 42% |  |  |  |  | 
CCCC(=O)OCCc1ccccc1 [MMV1578899] |  |  |  |  |  |  |  |  | 87.9% | 87.4% | 89.3% | 84.5% | activity at 25 µM [14]: 85.3%; activity at 25 µM [16]: 88.2%; activity at 25 µM [17]: 79.8%; Percent fungal survival at 100 µM [20]: 88.3%
CC(Oc1ccc(Cl)cc1Cl)C(=O)NCc1ccc2c(c1)OCO2 (stereo not shown) [MMV1578925] | 53.9% | 36.1% | 54.9% |  |  |  |  |  |  |  |  |  | activity at 25 µM [22]: 48.3%; activity at 100 µM [23]: 70.2%; activity at 100 µM [24]: 65.3%; activity at 100 µM [25]: 69%; activity at 100 µM [26]: 76.3%
C=C(C)n1c(=O)n(Cc2ccccc2C)c2ccccc21 [MMV1579354] |  |  |  |  |  |  |  |  | 93.1% | 9.54% | 2.4% | 4.84% | activity at 25 µM [14]: 79.6%; activity at 25 µM [16]: 79.3%; activity at 25 µM [17]: 66.5%; Percent fungal survival at 100 µM [20]: 21.4%
O=c1cc(OCc2ccccc2)ccn1Cc1ccccc1 [MMV1579775] |  |  |  |  |  |  |  |  | 65.3% | 63.4% | 61.9% | 55.4% | activity at 25 µM [14]: 71.3%; activity at 25 µM [16]: 61.6%; activity at 25 µM [17]: 87.1%; Percent fungal survival at 100 µM [20]: 72.8%
NS(=O)(=O)c1ccc(NC(=O)NC(c2ccccc2)c2ccccc2)cc1 [MMV1579776] |  |  |  |  |  |  |  |  | 95.1% | 97% | 103% | 89% | activity at 100 µM [20]: 98.7%; activity at 25 µM (read-out: Percentage survival at 25um, 25 uM B): 101%; activity at 25 µM (read-out: Percentage survival at 25um, 25 uM C): 86.7%; activity at 25 µM (read-out: Percentage survival at 25um, 25 uM mean): 94.2%
O=[N+]([O-])c1cn(Cc2nc(O)nc(O)c2Br)cn1 [MMV1579777] | 98.9% | 96.8% | 86.6% | 94.1% | 87.1% | 96.7% | 83.9% | 80.7% |  |  |  |  | 
C[C@H](NC(CC(=O)c1ccccc1C(F)(F)F)C(=O)O)c1ccccc1 (stereo partly shown) [MMV1579778] | 98.1% | 92% | 90.5% |  |  |  |  |  |  |  |  |  | activity at 25 µM [1]: 93.5%; activity at 100 µM [5]: 87.3%; activity at 100 µM [6]: 91.1%; Percent fungal survival at 100 µM [7]: 82.8%; activity at 100 µM [8]: 88.1%
CC(=O)Nc1cc(NS(=O)(=O)c2ccc(Cl)cc2)cc2c(Cl)n[nH]c12 [MMV1579779] | 80.2% | 89.2% | 82.1% | 83.8% | 82.2% | 78.5% | 74.6% | 93.4% |  |  |  |  | 
CC(C)n1cnc2c(NCc3ccccc3)nc(NCc3ccccc3)nc21 [MMV1579780] | 64.2% | 61.7% | 62% | 62.7% | 61% | 60.4% | 63.1% | 59.6% |  |  |  |  | 
CC(Cc1ccccc1)C(=O)Nc1ccc(Cl)cc1C(=O)O (stereo not shown) [MMV1579781] | 104% | 93.1% | 80.7% |  |  |  |  |  |  |  |  |  | activity at 25 µM [1]: 92.5%; activity at 100 µM [5]: 85.9%; activity at 100 µM [6]: 87.4%; Percent fungal survival at 100 µM [7]: 82.1%; activity at 100 µM [8]: 88.1%
Cc1cccc(CC(=O)N[C@H]2CCOC2=O)c1 [MMV1579782] | 95.3% | 93.9% | 92.9% | 94% | 90.9% | 95.1% | 88.4% | 89.2% |  |  |  |  | 
CCCCSc1nc(N)c2[nH]c(=O)c(=O)n(Cc3ccccc3)c2n1 [MMV1579783] | 95.5% | 58.6% | 70% |  |  |  |  |  |  |  |  |  | activity at 25 µM [22]: 74.7%; activity at 100 µM [23]: 54.9%; activity at 100 µM [24]: 84%; activity at 100 µM [25]: 5.11%; activity at 100 µM [26]: 75.6%
O=C(Nc1ccccc1C(=O)O)c1cccc(Oc2ccccc2)c1 [MMV1579784] |  |  |  |  |  |  |  |  | 75.3% | 90.8% | 88.1% | 72.2% | activity at 25 µM [14]: 90.7%; activity at 25 µM [16]: 85.5%; activity at 25 µM [17]: 111%; Percent fungal survival at 100 µM [20]: 112%
N#CCN1C(=O)COc2cc(F)c(N3C(=O)c4ccccc4C3=O)cc21 [MMV1579785] | 78.3% | 91.5% | 73.8% | 81.2% | 88.3% | 83.8% | 94.2% | 87% |  |  |  |  | 
NCCCc1ccccc1C(=O)Nc1ncc([N+](=O)O)s1 [MMV1579786] |  |  |  |  |  |  |  |  | 85.5% | 76.6% | 71.4% | 75.1% | activity at 25 µM [14]: 82.7%; activity at 25 µM [16]: 82.6%; activity at 25 µM [17]: 80.1%; Percent fungal survival at 100 µM [20]: 83.2%
O=C(CP(=O)(O)O)NCCc1cccc(Oc2ccccc2)c1 [MMV1579787] | 84.6% | 81.7% | 73.2% |  |  |  |  |  |  |  |  |  | activity at 25 µM [22]: 79.8%; activity at 100 µM [23]: 46.3%; activity at 100 µM [24]: -0.0188%; activity at 100 µM [25]: 65.7%; activity at 100 µM [26]: 73.3%
Cc1c(CN(C)C(=O)/C=C/c2cnc3c(c2)C(C)(C)C(=O)N3)oc2ccccc12 [MMV1579788] | 69.6% | 89.2% | 68.5% | 75.8% | 90.5% | 57.9% | 71.3% | 142% |  |  |  |  | 
N=C(N)c1ccc(COc2ccc(Cl)cc2)cc1 [MMV1579844] |  |  |  |  |  |  |  |  | 69.6% | 73.6% | 55.9% | 67.2% | activity at 25 µM [14]: 73%; activity at 25 µM [16]: 72.8%; activity at 25 µM [17]: 76.5%; Percent fungal survival at 100 µM [20]: 97.7%
O=C(NCc1cccc2ccccc12)c1cccs1 [MMV1579845] | 59.6% | 48.9% | 59.3% |  |  |  |  |  |  |  |  |  | activity at 25 µM [22]: 55.9%; activity at 100 µM [23]: 35%; activity at 100 µM [24]: 90%; activity at 100 µM [25]: 6.29%; activity at 100 µM [26]: 8.86%
COc1cc(Cc2cc(N)nc(N)n2)cc(OC)c1OC [MMV1579846] | 87.9% | 75.2% | 79.5% | 80.9% | 95.4% | 83.5% | 94.2% | 108% |  |  |  |  | 
Cc1ccn2c(C(=O)NCc3ccccc3)c(C)nc2c1 [MMV1579847] | 90.2% | 66.1% | 92.5% |  |  |  |  |  |  |  |  |  | activity at 25 µM [1]: 82.9%; activity at 100 µM [5]: 61.9%; activity at 100 µM [6]: 72.5%; Percent fungal survival at 100 µM [7]: 55.8%; activity at 100 µM [8]: 57.5%
